Where “and” joins values, the source holds several entries; their conditions need not be identical. Equal entries are not always repeated. Inconclusive results and toxic doses are left out. The calls were made as follows: active = survival T/C of 150% or more; inactive = T/C below 125% in these data.
Test system: CD2F1 mice, L1210 leukemia ip, survival T/C
Test: NCI In Vivo Anticancer Drug Screen. Data for tumor model L1210 Leukemia (intraperitoneal) in CD2F1 (CDF1) mice
Conditions: endpoint: mean survival time, higher = longer survival
Summary of the method: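 Implant tumor; dose compound or vehicle; measure endpoint in both groups; report treated divided by control.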

[1] = dose: 100.0 mg/kg/injection, schedule: Q01DX001 (ip), vehicle: saline with Tween-80
[2] = dose: 200.0 mg/kg/injection, schedule: Q01DX001 (ip), vehicle: saline with Tween-80
[3] = dose: 400.0 mg/kg/injection, schedule: Q01DX001 (ip), vehicle: saline with Tween-80
[4] = dose: 100.0 mg/kg/injection, schedule: Q04DX003 (ip), vehicle: saline
[5] = dose: 200.0 mg/kg/injection, schedule: Q04DX003 (ip), vehicle: saline
[6] = dose: 400.0 mg/kg/injection, schedule: Q04DX003 (ip), vehicle: saline
[7] = dose: 100.0 mg/kg/injection, schedule: Q04DX003 (ip), vehicle: saline with Tween-80
[8] = dose: 200.0 mg/kg/injection, schedule: Q04DX003 (ip), vehicle: saline with Tween-80
[9] = dose: 400.0 mg/kg/injection, schedule: Q04DX003 (ip), vehicle: saline with Tween-80
[10] = dose: 100.0 mg/kg/injection, schedule: Q01DX009 (ip), vehicle: saline with Tween-80
[11] = dose: 200.0 mg/kg/injection, schedule: Q01DX009 (ip), vehicle: saline with Tween-80
[12] = dose: 400.0 mg/kg/injection, schedule: Q01DX009 (ip), vehicle: saline with Tween-80
[13] = dose: 25.0 mg/kg/injection, schedule: Q01DX009 (ip), vehicle: saline with Tween-80
[14] = dose: 50.0 mg/kg/injection, schedule: Q01DX009 (ip), vehicle: saline with Tween-80

Measured: T/C

O=N/N=c1/c2[nH]cnc2ncn1O
inactive: dose: 12.5 mg/kg/injection, schedule: Q01DX005 (ip), vehicle: distilled water + Tween-80 110 % of control | dose: 25.0 mg/kg/injection, schedule: Q01DX005 (ip), vehicle: distilled water + Tween-80 93 % of control | dose: 50.0 mg/kg/injection, schedule: Q01DX005 (ip), vehicle: distilled water + Tween-80 89 % of control | dose: 100.0 mg/kg/injection, schedule: Q01DX005 (ip), vehicle: distilled water + Tween-80 88 % of control | dose: 200.0 mg/kg/injection, schedule: Q01DX005 (ip), vehicle: distilled water + Tween-80 93 % of control

Cc1ccc(NC(=O)Oc2ccc(F)cc2Cl)cc1NC(=O)Oc1ccc(F)cc1Cl
inactive: [1] 103 % of control | [2] 101 % of control | [3] 95 % of control

COC(Cn1cnc2c(N)ncnc21)OC
inactive: [4] 110 % of control | [5] 98 % of control | [6] 112 % of control

O=S1(=O)OCCC1=C(c1ccccc1)c1ccccc1
inactive: dose: 75.0 mg/kg/injection, schedule: Q04DX003 (ip), vehicle: saline 95 % of control | dose: 150.0 mg/kg/injection, schedule: Q04DX003 (ip), vehicle: saline 97 % of control | dose: 300.0 mg/kg/injection, schedule: Q04DX003 (ip), vehicle: saline 91 % of control

CCCCCC(O)C(O)CC(O)C(O)CCCCCCCC(=O)O (stereo not given)
inactive: [4] 94 % of control | [5] 91 % of control | [6] 100 % of control

Nc1cccc2scnc12 (tested in a mixture with another compound)
inactive: [7] 104 % of control | [8] 98 % of control | [9] 95 % of control

CC[C@H]1CN2CCc3cc(OC)c(OC)cc3[C@@H]2C[C@@H]1C[C@@H]1c2cc(OC)c(OC)cc2CCN1N=O
inactive: dose: 12.5 mg/kg/injection, schedule: Q01DX009 (ip), vehicle: saline 104 % of control | dose: 25.0 mg/kg/injection, schedule: Q01DX009 (ip), vehicle: saline 104 % of control | dose: 25.0 mg/kg/injection, schedule: Q04DX003 (ip), vehicle: saline 100 % of control | dose: 50.0 mg/kg/injection, schedule: Q01DX009 (ip), vehicle: saline 107 % of control | dose: 50.0 mg/kg/injection, schedule: Q04DX003 (ip), vehicle: saline 95 % of control

N/N=C(\N)c1ccc2ccc3cccnc3c2n1
inactive: [4] 89 % of control | [5] 104 % of control | [6] 108 % of control

CN(C)CCCNc1cc(O)c2c(c1O)C(=O)c1ccccc1C2=O
inactive: dose: 25.0 mg/kg/injection, schedule: Q01DX009 (ip), vehicle: water 98 % of control | dose: 50.0 mg/kg/injection, schedule: Q01DX009 (ip), vehicle: water 98 % of control | dose: 100.0 mg/kg/injection, schedule: Q01DX009 (ip), vehicle: water 95 % of control | dose: 200.0 mg/kg/injection, schedule: Q01DX009 (ip), vehicle: water 98 % of control

C=CCON
inactive: dose: 75.0 mg/kg/injection, schedule: Q01DX001 (ip), vehicle: saline 100 % of control

COc1cc2c(cc1O)-c1cc3ccc(OC)c(OC)c3c[n+]1CC2
inactive: dose: 25.0 mg/kg/injection, schedule: Q04DX002 (ip), vehicle: saline 111 % of control | dose: 25.0 mg/kg/injection, schedule: Q04DX003 (ip), vehicle: suspension in saline 94 % of control | dose: 50.0 mg/kg/injection, schedule: Q04DX002 (ip), vehicle: saline 97 % of control | dose: 50.0 mg/kg/injection, schedule: Q04DX003 (ip), vehicle: suspension in saline 90 % of control | dose: 100.0 mg/kg/injection, schedule: Q04DX002 (ip), vehicle: saline 104 % of control | dose: 100.0 mg/kg/injection, schedule: Q04DX003 (ip), vehicle: suspension in saline 102 % of control | dose: 200.0 mg/kg/injection, schedule: Q04DX002 (ip), vehicle: saline 104 % of control | dose: 200.0 mg/kg/injection, schedule: Q04DX003 (ip), vehicle: suspension in saline 109 % of control

C=CCC1OC1CCCC1CO1 (stereo not given)
inactive: dose: 100.0 mg/kg/injection, schedule: Q01DX001 (ip), vehicle: saline sonified 94 % of control | dose: 100.0 mg/kg/injection, schedule: Q04DX002 (ip), vehicle: saline with Tween-80 97 % of control | dose: 200.0 mg/kg/injection, schedule: Q01DX001 (ip), vehicle: saline sonified 90 % of control | dose: 200.0 mg/kg/injection, schedule: Q04DX002 (ip), vehicle: saline with Tween-80 101 % of control | dose: 400.0 mg/kg/injection, schedule: Q01DX001 (ip), vehicle: saline sonified 97 % of control | dose: 400.0 mg/kg/injection, schedule: Q04DX002 (ip), vehicle: saline with Tween-80 97 % of control

O=[N+]([O-])c1cccc(N=Cc2ccc3c(c2)OCO3)c1
inactive: dose: 100.0 mg/kg/injection, schedule: Q04DX003 (ip), vehicle: alcohol 105 % of control | dose: 200.0 mg/kg/injection, schedule: Q04DX003 (ip), vehicle: alcohol 108 % of control | dose: 400.0 mg/kg/injection, schedule: Q04DX003 (ip), vehicle: alcohol 97 % of control

CCCCCCCCCCOc1ccc(/C=N\N=C\c2ccc(OCCCCCCCCCC)cc2)cc1
inactive: [7] 94 % of control | [8] 94 % of control | [9] 92 % of control

CCCCNC(=O)Nc1ccc(C(=O)OCC(C)C)cc1
inactive: [10] 94 % of control | [7] 108 % of control | [11] 91 % of control | [8] 94 % of control | [12] 90 % of control | [9] 90 % of control

C=CCN1C(=O)c2ccccc2C1=O
inactive: [10] 98 % of control | [7] 97 % of control | [11] 94 % of control | [8] 101 % of control | [12] 100 % of control | [9] 101 % of control

CC(NC(=O)CN)C(=O)O (stereo not given)
inactive: dose: 100.0 mg/kg/injection, schedule: Q01DX001 (ip), vehicle: saline 100 % of control | dose: 200.0 mg/kg/injection, schedule: Q01DX001 (ip), vehicle: saline 100 % of control | dose: 400.0 mg/kg/injection, schedule: Q01DX001 (ip), vehicle: saline 104 % of control

CC(NC(=O)C(CSC(c1ccccc1)(c1ccccc1)c1ccccc1)NC(c1ccccc1)(c1ccccc1)c1ccccc1)C(=O)O (stereo not given)
inactive: dose: 150.0 mg/kg/injection, schedule: Q01DX001 (ip), vehicle: saline 96 % of control

O=CC12C=CC(CC1)C1C(=O)OC(=O)C12 (stereo not given)
inactive: [1] 104 % of control | [2] 103 % of control | [3] 101 % of control

CCC(=O)c1ccc(O)c(O)c1
inactive: [13] 95 % of control | [14] 96 % of control | [10] 96 % of control and 100 % of control | [4] 96 % of control | [5] 105 % of control | [6] 92 % of control

c1cnc2c(OB(C3CCCCC3)C3CCCCC3)cccc2c1
inactive: [1] 105 % of control | [2] 91 % of control | [3] 91 % of control

CCCCOC(=O)c1ccc(NC(=O)Nc2ccccc2)cc1
inactive: [13] 92 % of control | [14] 97 % of control | [10] 93 % of control

CC(C)C(=O)/C=C/c1ccccc1
inactive: [7] 102 % of control | [8] 103 % of control | [9] 102 % of control

CC(C)C1OC(C(F)(F)F)(C(F)(F)Cl)CC1=O (stereo not given)
inactive: dose: 100.0 mg/kg/injection, schedule: Q01DX001 (ip), vehicle: Klucel (hydroxypropylcellulose) (HPC) 86 % of control | dose: 200.0 mg/kg/injection, schedule: Q01DX001 (ip), vehicle: Klucel (hydroxypropylcellulose) (HPC) 97 % of control | dose: 400.0 mg/kg/injection, schedule: Q01DX001 (ip), vehicle: Klucel (hydroxypropylcellulose) (HPC) 98 % of control

Source: PubChem BioAssay AID256 (DTP/NCI, 2004)
